Assays:
ABP57 = ABP57 (Oryza sativa subsp. japonica, UniProt B7ELI0); assay: Scatchard analysis of binding between recombinant ABP57 and auxin hormone IAA; design: species or system rice; settings: recombinant protein
[1] = system: proton pump in plasma membrane; assay: Activation of proton pump in rice plasma membrane by ABP57 protein (fluorescence analyzer, Hill plot); assay type: biochemical
Procedure: The purified protein and the proton pump in plasma membrane, which had been separated from rice, were admixed with each other, and then the activity of proton pump was measured by fluorescence analyzer.
The change in degree of activating proton pump according to concentration of the recombinant protein was measured and analyzed by Hill plot analysis. […] Further, this value was very close to the Hill coefficient of 0.97, which was obtained by previous studies for the interaction between the proton pump and natural ABP57 (FIG. 8).

| Kd (ABP57; FIG. 9, read-out: IAA dissociation constant) | number of binding site (ABP57; corresponds to low affinity binding site of natural ABP57) | Molecule | Hill coefficient ([1]; degree of activating proton pump according to concentration of recombinant protein, Hill plot, FIG. 8) | activity of proton pump ([1]; purified recombinant protein admixed with proton pump in plasma membrane separated from rice, FIG. 7) |
| --- | --- | --- | --- | --- |
| 3.6 µM | 1 | O=C(O)Cc1c[nH]c2ccccc12 [IAA, indole-3-acetic acid] |  |  |
|  |  | recombinant protein: recombinant auxin receptor protein ABP57 from rice, expressed in E. coli as MBP fusion, MBP removed (SEQ ID NO: 1) (protein, listed as Oryza sativa) MAEIVSSVVVHEAVNQIIHGLVNWNERKSSAEENMERLEMAHIRLEAALETSCKWRITDSSLLCWQKKLKRAAQECDDTLRKCRQRILEQEEAEQEVRNSSIPRRIAHATKSLVSSLFYSNIDGSCRSAVRRFEWFADGANEFLRFVEFGGTPHQYLFFDPLIRQLLAGKTLEYKLVSENKYRLFVIRPFCISENRIEARLIFDSKNASALEDDFFLCMLLQVSESVDILGIVIKCLQLFNPHFMSTAESVRNELTQLPSQDFTWVPYAESCHKKHWDNIHSITTQWFRPNPLCCKQHGQNHSCESSNLGMPSVQGVSLGPVIEVSLQCHVPVPEFREQGTIVKGKPSLKKCPHMKVDLVYTPHGSSQDLLPEIKSSVIEVINGDKQHCLHTNIALELMEEIMLPRAVDCFHENAEAKLYQMLWKSKHGGAYLQVMKATMNTRSTQRTIRGSRKAKLLQQQGHKTQHRTNAISDFLNLWSAHAPVQLQGSILDWIQKEKEAQLAPPLLRLKF | 0.94 | increase in the activity of proton pump |

— patent US20120131697A1, “GENE ENCODING AUXIN RECEPTOR PROTEIN DERIVED FROM RICE AND USE THEREOF” (REPUBLIC OF KOREA (MANAGEMENT: RURAL DEVELOPMENT …, priority 2009, published 2012)
